# Test results: patent US20260224716A1, “PTH ANALOGS FOR THE TREATMENT OF HYPOPARATHYROIDISM” (priority 2020, published 2026)
# Several values for one entry are separate records, joined by “and”; a condition that tells them apart may be missing. Identical values can stand only once.
# T1: PTH1 receptor (Homo sapiens, UniProt Q03431)
# T1 construct: expressed in transfected cells; host or cells: HEK293
# T1 sequence (Q03431 27-593): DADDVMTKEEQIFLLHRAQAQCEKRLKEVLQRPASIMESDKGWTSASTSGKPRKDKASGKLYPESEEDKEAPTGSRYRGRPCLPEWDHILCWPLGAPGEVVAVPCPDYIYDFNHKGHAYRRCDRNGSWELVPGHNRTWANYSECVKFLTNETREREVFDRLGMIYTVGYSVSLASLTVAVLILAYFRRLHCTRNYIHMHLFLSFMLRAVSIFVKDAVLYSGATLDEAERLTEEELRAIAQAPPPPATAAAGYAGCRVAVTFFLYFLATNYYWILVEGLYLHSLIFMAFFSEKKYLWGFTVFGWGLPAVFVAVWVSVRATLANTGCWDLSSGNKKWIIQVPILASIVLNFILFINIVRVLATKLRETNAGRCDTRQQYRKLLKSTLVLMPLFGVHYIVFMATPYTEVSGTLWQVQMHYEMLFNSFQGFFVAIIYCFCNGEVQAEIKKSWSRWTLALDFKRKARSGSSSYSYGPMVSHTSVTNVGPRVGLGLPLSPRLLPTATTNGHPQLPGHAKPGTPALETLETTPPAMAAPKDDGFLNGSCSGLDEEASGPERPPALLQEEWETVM
# T2: PTHR1 (Homo sapiens, UniProt Q03431)
# T2 construct: host or cells: CHO-K1
# T2 sequence (Q03431 27-593): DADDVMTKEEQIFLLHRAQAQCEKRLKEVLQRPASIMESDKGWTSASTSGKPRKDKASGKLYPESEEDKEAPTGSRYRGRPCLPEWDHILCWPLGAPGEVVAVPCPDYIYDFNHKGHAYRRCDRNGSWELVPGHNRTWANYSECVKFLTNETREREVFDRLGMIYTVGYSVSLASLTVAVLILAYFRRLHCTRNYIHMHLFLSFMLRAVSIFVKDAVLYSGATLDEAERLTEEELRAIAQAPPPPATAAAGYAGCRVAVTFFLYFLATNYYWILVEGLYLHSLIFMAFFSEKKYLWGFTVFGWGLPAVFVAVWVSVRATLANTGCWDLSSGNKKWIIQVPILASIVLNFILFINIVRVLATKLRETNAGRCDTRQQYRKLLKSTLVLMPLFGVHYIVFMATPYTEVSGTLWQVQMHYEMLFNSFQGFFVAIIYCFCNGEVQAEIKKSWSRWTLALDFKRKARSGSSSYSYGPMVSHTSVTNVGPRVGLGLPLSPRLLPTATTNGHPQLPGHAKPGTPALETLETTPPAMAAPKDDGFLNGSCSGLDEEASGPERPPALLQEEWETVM
# How the values were obtained:
# [1] = tested on: serum phosphate; assay: Serum phosphate in rats, repeat daily dosing 7 days (Example 13); assay type: in vivo, Sprague-Dawley rats; details: daily SC, SEQ ID NO: 77 20 nmol/kg
# Method: (§1) Female Sprague-Dawley rats were single or double-housed and randomly assigned to four groups (n=5-6 per group) as described in Table 20, and then weighed.
# (§2) After the treatment ceased, the animals were monitored on days 9 and 11 (washout period).
# (§3) Body weight and food intake were measured on days 0, 1, 3, 5 and 7. Ca was measured on days 0, 1, 2, 3, 4, 7, 9 and 11. Pi was determined on the same samples, except for days 9 and 11.
# [2] = tested on: serum calcium; assay: Pharmacology in normal mice: serum calcium (Example 6); assay type: in vivo, C57Bl6/J mice; details: FIG. 5C, 20 or 40 nmol/kg SC, 24 and 48 hours
# Method: Each group of mice was bled immediately before the injection and after 24 and 48 hours. Blood was centrifuges and serum was collected and stored at −20 C. Calcium concentrations were determined used commercially available assays following the manufacturer's instructions.
# [3] = target: T1, PTH1 receptor; assay: Luciferase-based reporter gene assay for cAMP detection (HEK293 cells); assay type: cell-based; details: FIG. 4; luciferase reporter of cAMP production
# Method: At the end of the incubation, 50 μL of Steady-Lite Plus (PerkinElmer, Waltham, MA) were added to each well. The plate was shaken briefly, incubated four minutes and light output was measured on an EnSpire Alpha Multi-mode Plate Reader (PerkinElmer, Waltham, MA).
# [4] = Plasma drug levels in rats, repeat daily dosing 7 days, LCMS (Example 13); assay type: in vivo, Sprague-Dawley rats; details: daily SC dosing
# Method: as §1, §2, §3
# [5] = Pharmacokinetics of SEQ ID 87 in monkeys, single subcutaneous dose (Example 17); assay type: in vivo, cynomolgus monkeys
# Method: A total of three monkeys were used at each test dose. The monkeys ranged in age from 2-4 years old at beginning of the study and having a weight of at least 2.5 kg. The dose volume was 0.3 mL/kg. Individual dose volumes were calculated based on the animals' most recently recorded body weight.
# Animals were not fasted prior to collection. Blood was be collected via the femoral vein (or another appropriate site). Blood samples were maintained at 5±3° C. (wet ice or equivalent) and centrifuged at 5±3° C. within 1 hour of the collection of each blood sample. The resultant plasma was transferred to a tube and then stored under conditions set to maintain −75±15° C. until analysis.
# Pharmacokinetic mean concentration-time data was analyzed using non-compartmental methods (Phoenix® WinNonlin® Version 7.0 or higher) based on the route of administration. The following parameters were calculated whenever possible and as data allows: Cmax, Tmax, and AUC. Descriptive statistics were generated using Phoenix WinNonlin.
# [6] = Pharmacokinetics in rats after single subcutaneous dose, LCMS (Example 10)
# Source text: Female Sprague-Dawley rats were randomly distributed among four groups with five or six rats per group. […] Dose volume was based on body weight and recorded prior to dosing.
# [7] = tested on: serum calcium; assay: Serum calcium in mice after single subcutaneous SEQ ID NO: 77 (Example 9); assay type: in vivo, C57BL/6J mice; details: for Percent change of serum Ca levels: 24 hr vs 0 hr
# Method: Absorbance (Ab) was measured at 650 nm wavelength. Manufacturer linearity is provided up to 15 mg/dl. […] This difference was statistically significant at 24 hours when accounting for the initial baseline levels (FIG. 14B). There was an increase in serum Ca at 24 hours following the dose of 40 nmol/kg.
# [8] = target: T2, PTHR1; assay: cAMP Hunter Teriparatide Bioassay (CHO-K1 PTHR1 cells); assay type: cell-based
# Method: The assessment of the bioactivity of a prodrug relative to its drug form was conducted in a proprietary commercial assay as contracted with Eurofins-Discover Rx Corporation win a cAMP Hunter® Teriparatide Bioassay (95-0118Y2). An 11-point dose curve in agonist mode was conducted for each individual peptide or incubation condition. Every sample was run at each dose in triplicate.
# An 11-point dose curve in agonist mode was conducted for each individual peptide or incubation condition. Every sample was run at each dose in triplicate.
# An 11-point dose curve in agonist mode was conducted for each individual peptide at each concentration. Every sample was run at each dose in triplicate.
# [9] = tested on: serum calcium; assay: Serum calcium in rats, repeat daily dosing 7 days (Example 13); assay type: in vivo, Sprague-Dawley rats; details: daily SC 7 days; SEQ ID NO: 77 20 nmol/kg, SEQ ID NO: 87 20 or 40 nmol/kg; returned to initial values after washout
# Method: as §1, §2, §3
# [10] = tested on: serum calcium; assay: Pharmacology in normal rats: serum calcium (Example 5); assay type: in vivo, Sprague Dawley rats; details: FIG. 5A; 20, 40, 80 nmol/kg SC, dose-responsive over 72 hours
# Method: (§4) Each group of rats was bled immediately before the injection and after 6, 24, 48 and 72 hours. Blood was spun and serum was collected and stored at −20° C. Calcium and phosphorous concentrations were determined used commercially available assays following the manufacturer's instructions.
# [11] = tested on: serum phosphate; assay: Pharmacology in normal rats: serum phosphate (Example 5); assay type: in vivo, Sprague Dawley rats; details: FIG. 5B; 20, 40, 80 nmol/kg SC, dose-responsive over 72 hours
# Method: as §4
# [12] = tested on: calcium urinary excretion; details: humans, 100 ug subcutaneous; adequate control limited to only ⅓ of the day; cited from earlier work
# [13] = rats, SEQ ID NO: 77 30 nmol/kg SC
# [14] = rats, after SEQ ID NO: 87 30 nmol/kg SC
molecule,measurement,setting,value
CC[C@H](C)[C@H](NC(=O)[C@H](CCC(=O)O)NC(=O)[C@H](CO)NC(=O)[C@@H](NC(=O)[C@@H](N)CO)C(C)C)C(=O)N[C@@H](CCC(N)=O)C(=O)N[C@@H](CC(C)C)C(=O)N[C@@H](CCSC)C(=O)N[C@@H](Cc1c[nH]cn1)C(=O)N[C@@H](CC(N)=O)C(=O)N[C@@H](CC(C)C)C(=O)NCC(=O)N[C@@H](CCCCN)C(=O)N[C@@H](Cc1c[nH]cn1)C(=O)N[C@@H](CC(C)C)C(=O)N[C@@H](CC(N)=O)C(=O)N[C@@H](CO)C(=O)N[C@@H](CCSC)C(=O)N[C@@H](CCC(=O)O)C(=O)N[C@@H](CCCNC(=N)N)C(=O)N[C@H](C(=O)N[C@@H](CCC(=O)O)C(=O)N[C@@H](Cc1c[nH]c2ccccc12)C(=O)N[C@@H](CC(C)C)C(=O)N[C@@H](CCCNC(=N)N)C(=O)N[C@@H](CCCCN)C(=O)N[C@@H](CCCCN)C(=O)N[C@@H](CC(C)C)C(=O)N[C@@H](CCC(N)=O)C(=O)N[C@@H](CC(=O)O)C(=O)N[C@H](C(=O)N[C@@H](Cc1c[nH]cn1)C(=O)N[C@@H](CCCCNC(=O)CC[C@H](NC(=O)COCCOCCNC(=O)COCCOCCNC(=O)CC[C@H](NC(=O)CCCCCCCCCCCCCCCCC(=O)O)C(=O)O)C(=O)O)C(=O)O)C(C)C)C(C)C [SEQ ID NO: 77],serum Pi on day 3 versus vehicle and SEQ ID NO: 87 40 nmol/kg,[1],differed significantly
same,effect on serum calcium levels,[2],increase serum calcium levels
same,potency at the PTH receptor,[3],retains the high potency
same,daily administrations to reach steady state plasma levels,[4],four
same,time of peak concentration of drug formed from prodrug,"[5]; after SEQ ID No 87 2.5, 3.75, 5 nmol/kg SC",48 to 72 h
same,concentration as fraction of the Cmax concentration,"[5]; drug formed from prodrug, at one week",approximately ⅔
same,level at time molar at 2 h,"[6]; female, Sprague-Dawley, rat, serum, sc, 30 nmol/kg",> 100 nM
same,time at baseline level,[6]; [13],96 h
same,time of peak concentration,[6]; [13],seven
same,concentration as fraction of the Cmax,"[6]; rats, SEQ ID NO: 77 30 nmol/kg SC, at 48 h",⅓
same,time of peak of drug formed from prodrug,[6]; [14],24 h
same,"time of return to baseline, drug formed from prodrug",[6]; [14],one week
same,Percent change of serum Ca levels,[7]; 20 nmol/kg SC,13.8%
same,Serum Ca change,"[7]; 20 nmol/kg SC, 24 hr vs 0 hr (nmol/ul)",0.3131
same,Serum Ca change,"[7]; 20 nmol/kg SC, 48 hr vs 0 hr",0.0709
same,serum Ca levels compared to controls or 20 nmol/kg,"[7]; 40 nmol/kg SC, 24 and 48 hours post treatment",significantly increased serum Ca levels
same,Percent change of serum Ca levels,[7]; 40 nmol/kg SC,26.2%
same,Serum Ca change,"[7]; 40 nmol/kg SC, 24 hr vs 0 hr (nmol/uL)",0.631
same,Serum Ca change,"[7]; 40 nmol/kg SC, 48 hr vs 0 hr",0.073
same,"Serum Calcium Conc., individual mouse","[7]; Group F (20 nmol/kg by match with Table 11), 0 hour",8.9502 mg/dl and 2.2375 nmol/uL and 8.8662 mg/dl and 2.2165 nmol/uL and 9.3810 mg/dl and 2.3453 nmol/uL and 9.3774 mg/dl and 2.3443 nmol/uL and 10.2136 mg/dl and 2.5534 nmol/uL and 9.6513 mg/dl and 2.4128 nmol/uL and 8.7165 mg/dl and 2.1791 nmol/uL and 7.4968 mg/dl and 1.8742 nmol/uL
same,"Serum Calcium Conc., individual mouse","[7]; Group F (20 nmol/kg by match with Table 11), 24 hours",9.1693 mg/dl and 2.2923 nmol/uL and 9.4988 mg/dl and 2.3747 nmol/uL and 9.8423 mg/dl and 2.4606 nmol/uL and 11.4721 mg/dl and 2.8680 nmol/uL and 10.9604 mg/dl and 2.7401 nmol/uL and 10.4767 mg/dl and 2.6192 nmol/uL and 9.1062 mg/dl and 2.2766 nmol/uL and 12.1451 mg/dl and 3.0363 nmol/uL
same,"Serum Calcium Conc., individual mouse","[7]; Group F (20 nmol/kg by match with Table 11), 48 hours",8.8303 mg/dl and 2.2076 nmol/uL and 9.1467 mg/dl and 2.2867 nmol/uL and 8.8431 mg/dl and 2.2108 nmol/uL and 7.3666 mg/dl and 1.8416 nmol/uL and 8.7057 mg/dl and 2.1764 nmol/uL and 9.7411 mg/dl and 2.4353 nmol/uL and 8.7472 mg/dl and 2.1868 nmol/uL and 9.0029 mg/dl and 2.2507 nmol/uL
same,"Serum Calcium Conc., individual mouse","[7]; Group G (40 nmol/kg by match with Table 11), 0 hour",9.4650 mg/dl and 2.3663 nmol/uL and 10.0310 mg/dl and 2.5078 nmol/uL and 9.9105 mg/dl and 2.4776 nmol/uL and 8.8662 mg/dl and 2.2165 nmol/uL and 10.1369 mg/dl and 2.5342 nmol/uL and 10.6007 mg/dl and 2.6502 nmol/uL and 9.6001 mg/dl and 2.4000 nmol/uL and 8.5266 mg/dl and 2.1316 nmol/uL
same,"Serum Calcium Conc., individual mouse","[7]; Group G (40 nmol/kg by match with Table 11), 24 hours",13.6768 mg/dl and 3.4192 nmol/uL and 11.5422 mg/dl and 2.8856 nmol/uL and 12.7305 mg/dl and 3.1826 nmol/uL and 11.5563 mg/dl and 2.8891 nmol/uL and 13.0880 mg/dl and 3.2720 nmol/uL and 11.5633 mg/dl and 2.8908 nmol/uL and 11.7070 mg/dl and 2.9267 nmol/uL and 11.4651 mg/dl and 2.8663 nmol/uL
same,"Serum Calcium Conc., individual mouse","[7]; Group G (40 nmol/kg by match with Table 11), 48 hours",10.2589 mg/dl and 2.5647 nmol/uL and 9.0764 mg/dl and 2.2691 nmol/uL and 10.0607 mg/dl and 2.5152 nmol/uL and 9.2554 mg/dl and 2.3138 nmol/uL and 9.9968 mg/dl and 2.4992 nmol/uL and 9.9425 mg/dl and 2.4856 nmol/uL and 10.6168 mg/dl and 2.6542 nmol/uL and 10.2429 mg/dl and 2.5607 nmol/uL
same,serum Ca at 48 hours post treatment,"[7]; all treatments, 20 or 40 nmol/kg SC",returned to near starting levels
same,EC50,"[8]; FIG. 11, active drug",0.01 nM
same,Hillslope,"[8]; FIG. 11, active drug",1.874
same,EC50,[8]; FIG. 12,0.0366 nM
same,Hillslope,[8]; FIG. 12,2.237
same,EC50,[8]; FIG. 13A,0.0107 nM
same,Hillslope,[8]; FIG. 13A,2.687
same,EC50,[8]; FIG. 13B,0.0193 nM
same,Hillslope,[8]; FIG. 13B,2.687
same,PTH agonism,"[8]; conclusions from Table 14, FIGS. 8A-8C",inactivates the PTH agonism
same,Serum Ca levels during the treatment period,[9],gradually increased
"SVSEIQLMHNLGKHLNSMERVEWLRKKLQDVHK(γE-COC16H32CO2H)F-OH (SVSEIQLMHNLGKHLNSMERVEWLRKKLQDVHXF; K33 γE-diacidC18 acylation; C-terminal acid; SITE 33 MISC_FEATURE - Xaa at position 33 is Lys wherein the side chain is acylated with COC16H32CO2H via a gamma Glu spacer; listed as Homo sapiens) [SEQ ID NO: 102, PTH(1-34), K33(γE-diacidC18)]",effect on serum calcium levels,[10],increase serum calcium levels
same,effect on serum calcium levels,[2],increase serum calcium levels
same,effect on serum phosphate,[11],reduce serum phosphate
"Natpara: NPS/Shire's Natpara® (rhPTH), approved by the FDA in January of 2015 (protein, listed as Homo sapiens) SVSEIQLMHNLGKHLNSMERVEWLRKKLQDVHNFVALGAPLAPRDAGSQRPRKKEDNVLVESHEKSLGEADKADVNVLTKAKSQ",duration of action on calcium,[12],insufficient duration of action
